Results reported in ChEMBL document CHEMBL5729683, “Diazaindole derivative and use thereof as CHK1 inhibitor” (2023).

Legend:
[1] = target: Serine/threonine-protein kinase Chk2 (Homo sapiens, UniProt O96017); test: Activity Test of Compounds in the CHK1 Coupled Reaction System: The compounds of the present disclosure used in the experiments were self-prepared, and their chemical names and structural formulas were shown in the preparation embodiments of each compound. […] The test was carried out on the KinaseProfiler™ protein kinase activity detection platform of Eurofins, and the experimental results were provided by the company. […] A mixture solution of Mg2′ and ATP (adenosine triphosphate) was added to initiate the reaction and the reaction solution was incubated at room temperature for 40 min. 0.5% […] was added to terminate the reaction. […] The value was read with scintillation counting method after drying.
Sequence of Serine/threonine-protein kinase Chk2 (O96017 whole entry): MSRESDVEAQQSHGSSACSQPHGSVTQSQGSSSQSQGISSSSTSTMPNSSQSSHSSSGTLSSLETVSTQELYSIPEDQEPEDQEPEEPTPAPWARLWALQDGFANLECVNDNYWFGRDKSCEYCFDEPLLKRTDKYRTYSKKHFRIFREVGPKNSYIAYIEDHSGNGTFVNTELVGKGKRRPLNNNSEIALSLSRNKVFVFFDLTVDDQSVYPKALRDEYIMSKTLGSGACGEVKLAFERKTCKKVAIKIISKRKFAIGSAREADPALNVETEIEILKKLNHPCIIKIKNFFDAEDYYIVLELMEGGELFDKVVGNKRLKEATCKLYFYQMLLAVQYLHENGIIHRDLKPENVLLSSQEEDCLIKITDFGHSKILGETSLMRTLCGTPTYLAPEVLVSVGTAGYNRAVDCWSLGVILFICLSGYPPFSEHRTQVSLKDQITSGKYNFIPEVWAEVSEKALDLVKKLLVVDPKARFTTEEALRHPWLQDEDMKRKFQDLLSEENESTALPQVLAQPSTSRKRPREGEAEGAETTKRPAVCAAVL

[2] = target: T1, Serine/threonine-protein kinase Chk1 (Homo sapiens, UniProt O14757); test: Activity Test of Compounds in the CHK1 Coupled Reaction System: The compounds of the present disclosure used in the experiments were self-prepared, and their chemical names and structural formulas were shown in the preparation embodiments of each compound. The determination mixture containing embodiment compounds of the present disclosure and Chk1 and Chk2 kinases were incubated in a microtiter plate, and CHK1 inhibitor activity of compounds were tested by monitoring the phosphorylation of Chk1 and Chk2 kinases on a synthetic peptide substrate with a specific amino acid sequence ([…], SEQ ID NO: 1). The test was carried out on the KinaseProfiler™ protein kinase activity detection platform of Eurofins, and the experimental results were provided by the company. The procedure was as follows: Chk1 and Chk2 kinases were diluted with 20 mM MOPS (morpholinpropane sulfonic acid), 1 mM EDTA (ethylenediaminetetraacetic acid), 0.04% Brij-35, 5% glycerol, 0.1% 2-mercaptoethanol, 1 mg/mL BSA (bovine serum albumin) and added to the reaction system, and the reaction system contained the embodiment compounds, 8 mM MOPS pH 7.0, 0.2 mM EDTA, 200 sM polypeptide substrate ([…], SEQ ID NO: 1), 10 mM magnesium acetate and a certain concentration of [γ-33P]-ATP (the strength was about 500 cpm/pmol). A mixture solution of Mg2′ and ATP (adenosine triphosphate) was added to initiate the reaction and the reaction solution was incubated at room temperature for 40 min. 0.5% Phosphate buffer was added to terminate the reaction. 10 μL of the reaction solution was filtered four times on a continuous filter P30, washed three times with 0.425 phosphate buffer, and once with methanol, each wash for 4 min. The value was read with scintillation counting method after drying.
T1 sequence (O14757 whole entry): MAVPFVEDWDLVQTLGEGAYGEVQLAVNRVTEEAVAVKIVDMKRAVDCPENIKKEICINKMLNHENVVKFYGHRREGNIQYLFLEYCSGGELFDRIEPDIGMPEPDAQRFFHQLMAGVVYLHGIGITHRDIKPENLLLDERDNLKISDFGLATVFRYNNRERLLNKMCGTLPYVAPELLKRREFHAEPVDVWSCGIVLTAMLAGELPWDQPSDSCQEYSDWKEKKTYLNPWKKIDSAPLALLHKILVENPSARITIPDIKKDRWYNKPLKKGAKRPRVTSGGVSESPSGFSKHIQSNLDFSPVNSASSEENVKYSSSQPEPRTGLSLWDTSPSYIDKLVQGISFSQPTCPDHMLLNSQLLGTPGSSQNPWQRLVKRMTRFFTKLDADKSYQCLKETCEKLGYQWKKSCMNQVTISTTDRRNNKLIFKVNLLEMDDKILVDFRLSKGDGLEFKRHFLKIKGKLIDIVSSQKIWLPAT

Compound	IC50 [1]	IC50 [2]
COc1nc(C)ccc1-c1cc(Nc2cnc3c(F)cn(C4CCN(C)CC4)c3n2)n[nH]1	166 nM	
COc1nc(C)ccc1-c1cc(Nc2cnc3c(F)cn(C4CCNCC4)c3n2)n[nH]1	28 nM	
COc1cccc(F)c1-c1cc(Nc2cnc3c(F)cn(C4CCNCC4)c3n2)n[nH]1	2 nM	< 1 nM
COc1nc(C)ccc1-c1cc(Nc2cnc3ccn(C4CCNCC4)c3n2)n[nH]1	79 nM	
COc1nc(C)ccc1-c1cc(Nc2cnc3ccn(C4CCN(C)CC4)c3n2)n[nH]1	257 nM	
COc1cccc(F)c1-c1cc(Nc2cnc3ccn(C4CCNCC4)c3n2)n[nH]1	13 nM	in the range around 1 nM
COc1nc(C)ccc1-c1cc(Nc2cnc3ccn(CC4CCNCC4)c3n2)n[nH]1	1970 nM	5 nM
COc1cccc(F)c1-c1[nH]nc(Nc2cnc3ccn(C4CCNCC4)c3n2)c1F	24 nM	in the range around 2 nM
